Values of other authors in patent US20090170823A1, “Dosage Regimens and Pharmaceutical Compositions and Packages for Emergency Contraception” (Duramed Pharmaceuticals, Inc., priority 2007, published 2009).

Details: relative to 30 μg ethinyl estradiol; see EP 0 253 607

Row | SMILES | amount roughly equivalent to 30 μg of ethinyl estradiol
1 | C[C@]12CC[C@@H]3c4ccc(O)cc4CC[C@H]3[C@@H]1CC[C@@H]2O [17β-estradiol] | ~2,000 μg
2 | C#C[C@]1(O)CC[C@H]2[C@@H]3CCc4cc(OC)ccc4[C@H]3CC[C@@]21C [mestranol] | ~60 µg
